5 compounds from article PMC11173485, “Connecting GSK-3β Inhibitory Activity with IKK-β or ROCK-1 Inhibition to Target Tau Aggregation and Neuroinflammation in Alzheimer’s Disease—Discovery, In Vitro and In Cellulo Activity of Thiazole-Based Inhibitors” (Molecules, 2024) can be followed below.

Data set [1] has as its system BV-2 (mouse microglial cells). Nature of the data set: Cytotoxicity, PrestoBlue cell viability assay in BV-2 cells. Conditions: for effect on cell viability in BV-2 cells (in words): 0.1, 1, 10, 50, and 100 µM. The format is cell-based. The method, then:
(§1) We assessed their cytotoxic effects at five concentrations (0.1, 1, 10, 50, and 100 µM) in HT-22 (mouse hippocampal neuronal cells) and BV-2 (mouse microglial cells) cell lines using a fluorometric assay with PrestoBlue™ cell viability reagent (Table 4, Table S2 in the SI).
(§2) Mouse microglial cells (BV-2) were a generous gift from Professor Bozena Kaminska-Kaczmarek of the Laboratory of Molecular Neurobiology, Neurobiology Center, Nencki Institute of Experimental Biology, Polish Academy of Sciences, Warsaw, Poland. Cells were cultured in Dulbecco’s modified Eagle’s Medium-high glucose (DMEM, Glutamx Thermo Fisher, Waltham, MA, USA) supplemented with 10% inactivated fetal bovine serum (Thermo Fisher), 100 IU/mL penicillin (Merck), and 100 µg/mL streptomycin (Merck). Cells were cultured in flasks (area 175 cm^2, Nunc) and incubated at 37 °C, 5% CO2. To evaluate the level of NO, IL-6, and TNF-α and the effectiveness of the compounds tested, BV-2 microglia cells were cultured in 96-well culture plates (5 × 10^4 cells per well, Falcon). For the measurement of cell viability and cell membrane damage, cells were placed in 96-well culture plates (2 × 10^4 cells per well, Falcon). Before the tests, cells were grown for 24 h in the incubator (37 °C, 5% CO2). Mouse Hippocampal Neuronal Cell Line (HT-22) was a generous gift from Dr Bartosz Pomierny of the Department of Biochemical Toxicology, Jagiellonian University Medical College, Krakow, Poland. Cells were cultured in Dulbecco’s modified Eagle’s Medium-high glucose (DMEM, Glutamx Thermo Fisher) supplemented with 10% inactivated fetal bovine serum (Thermo Fisher), 100 IU/mL penicillin (Merck), and 100 µg/mL streptomycin (Merck). Cells were cultured in flasks (area 175 cm^2, Nunc) and incubated at 37 °C, 5% CO2. For the measurement of cell viability and neuroprotective effects against okadaic acid, cells were placed in 96-well culture plates (2 × 10^4 cells per well, Falcon). Before the tests, cells were grown for 24 h in the incubator (37 °C, 5% CO2).
(§3) Cell viability was evaluated using the PrestoBlue reagent (Thermo Fisher), according to the manufacturer’s procedures. Following 24 h of incubation with the tested molecule, PrestoBlue reagent was added to a microplate well in an amount equal to one-tenth of the remaining medium volume. The resulting mixture was incubated for 15 min at 37 °C, and the fluorescence intensity (EX 530; EM 580 nm) was measured using the plate reader POLARstar Omega, (BMG Labtech, Ortenberg, Germany). The results (viability values) are provided as a percentage of live cells with respect to DMSO (control sample).
(§4) Cytotoxic effects of selected inhibitors in HT-22 mouse hippocampal neuronal cells and BV-2 mouse microglial cells
(§5) Table S2. Cytotoxic effects of selected inhibitors in HT-22 mouse hippocampal neuronal cells and BV-2 mouse microglial cells. neurotoxicity in HT-22 cellsa immunotoxicity in BV-2 cellsa […]
(§6) a % of cell viability at the given concentration of tested compound; mean value ± standard deviation (SD) of triplicates; b half maximal inhibitory concentration of the tested compound; mean value ± standard error of the mean (SEM) of triplicates; c data obtained in log C of 39 of -8.5; -7.5; -6.5; -5.5; -5, respectively; d data obtained in log C of 49 of -7.5; -6.5; -5.5; -4.5; -4. respectively; nt, not tested.

Assay in data set [2]: as above
Conditions: mouse, BV-2 microglial cells, 24 h; for viability at 24 h, 1 µM: 1 µM (log C -6); for viability at 24 h, 1 µM / viability at 24 h, 10 µM / viability at 24 h, 50 µM / viability at 24 h, 100 µM / viability at 24 h, 0.1 µM: read-out: immunotoxicity in BV-2 cells, % of cell viability; for viability at 24 h, 10 µM: 10 µM (log C -5); for viability at 24 h, 50 µM: 50 µM (log C -4.3); for viability at 24 h, 100 µM: 100 µM (log C -4); for IC50 at 24 h: PrestoBlue, mean ± SEM, read-out: Cytotoxicity in BV-2 Cells (IC50 x¯ ± SEM µM). It counts as cell-based, mouse. The method, then: as §1, §2, §3, §4, §5, §6

Data set [3] in a line: Cytotoxicity, PrestoBlue cell viability assay in HT-22 cells. Conditions: mouse, HT-22 hippocampal neuronal cells, 24 h; for viability at 24 h, 1 µM: 1 µM (log C -6); for viability at 24 h, 1 µM / viability at 24 h, 10 µM / viability at 24 h, 50 µM / viability at 24 h, 100 µM / viability at 24 h, 0.1 µM: read-out: neurotoxicity in HT-22 cells, % of cell viability; for viability at 24 h, 10 µM: 10 µM (log C -5); for viability at 24 h, 50 µM: 50 µM (log C -4.3); for viability at 24 h, 100 µM: 100 µM (log C -4); for IC50 at 24 h: PrestoBlue, mean ± SEM, read-out: Cytotoxicity in HT-22 Cells (IC50 x¯ ± SEM µM). It counts as cell-based, mouse. On the procedure:
as §1, §2, §3, §4, §5, §6

Data set [4] deals with HT-22 (mouse hippocampal neuronal cells). Described as above. The format is cell-based. Conditions: for effect on cell viability in HT-22 cells (in words): 0.1, 1, 10, 50, and 100 µM. On the procedure:
as §1, §2, §3, §4, §5, §6

The next data set has as its target GSK-3β (Homo sapiens, UniProt P49841). Nature of the data set: ADP-Glo kinase assay, GSK-3β inhibition. It counts as biochemical. More on the design: purchased Promega. To be noted: mean ± SEM; ATP 25 µM. The source says: We evaluated the inhibitory activity of the final compounds against GSK-3β, IKK-β, and ROCK-1 kinases using the commercially available ADP-Glo™ kinase assay. The method was based on the measurement of luminescence that correlates with kinase activity. […] The latter are inhibitors of the kinases of interest and were integral to the design of our studies.
Promega’s Kinase Enzyme Systems (Promega; Madison, WI, USA) were used to determine the activities of the tested compounds against the human recombinant kinases GSK-3β, IKK- β, and ROCK-1. The assays were performed according to the provided manufacturer’s instruction, based on the optimized conditions of the enzymatic reactions, using the low-volume, white polystyrene, 384-well plates. The ADP-Glo™ Assay (Promega; Madison, WI, USA) was used for bioluminescent detection of the kinase activity. Stock solutions of the tested compounds in DMSO (1mM) were diluted with the Kinase Assay Buffer before use (40 mM Tris, pH 7.5, enriched with 50 µM dithiothreitol; DTT), giving the final desired concentrations. The kinase enzymes, substrates, and ATP solutions were also diluted with the assay buffer prior to use. The GSK-3β, IKK-β, and ROCK-1 substrates were derived from human muscle glycogen synthase 1, human IkBA, and human 40S ribosomal protein S6, respectively. The assay procedure was as follows: At first, the appropriate kinase enzyme (GSK-3β: 10 ng per well; IKK-β: 45 ng per well; ROCK-1: 24 ng per well) was incubated with the tested sample (10 µM in well) for 5 min. The DMSO solution (1% in well) was used in the blank samples instead of the tested inhibitors. After the incubation period, ATP (25 µM per well in the case of GSK-3β and IKK-β kinases; 5 µM per well in the case of ROCK-1 kinase) and an appropriate enzyme substrate (0.2 µg/µL in well) were added to start the enzymatic reaction. The reaction mixture was kept at room temperature for 1 h; then, the ADP-Glo™ reagent was added, to terminate the kinase reaction and deplete any remaining ATP. After 40 min, a second reagent (Kinase Detection Reagent) was applied to convert the obtained ADP to ATP and to generate light from the newly synthesized ATP using a luciferase/luciferin reaction. The mixture was incubated for another 30 min at room temperature before the luminescence was measured. The calculations of the percent of kinases’ inhibition by tested compounds were based on the equation 100 − (S/B) × 100; S and B are the enzyme activities with and without the tested sample, respectively. […] Each compound was evaluated in two independent experiments, with every data point collected in duplicate.

GSK-3β, sequence (P49841 whole entry): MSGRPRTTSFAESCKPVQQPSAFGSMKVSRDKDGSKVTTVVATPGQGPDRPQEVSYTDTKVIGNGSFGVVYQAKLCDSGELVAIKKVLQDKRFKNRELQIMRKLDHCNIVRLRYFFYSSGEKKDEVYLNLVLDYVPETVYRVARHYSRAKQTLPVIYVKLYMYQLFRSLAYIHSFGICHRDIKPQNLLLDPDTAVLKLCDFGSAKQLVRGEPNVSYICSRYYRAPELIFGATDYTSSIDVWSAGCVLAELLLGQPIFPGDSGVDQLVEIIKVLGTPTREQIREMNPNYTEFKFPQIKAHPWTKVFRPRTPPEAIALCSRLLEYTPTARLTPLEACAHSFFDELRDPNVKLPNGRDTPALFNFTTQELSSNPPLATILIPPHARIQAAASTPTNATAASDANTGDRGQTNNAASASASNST

As for `O=C1NC2(CCCC2)Nc2cc(-c3ccnc(NC(=O)C4CC4)c3)sc21` [Compound 60, N-(4-(4’-Oxo-3’,4’-dihydro-1’H-spiro[cyclopentane-1,2’-thieno [3,2-d]pyrimidin]-6’-yl)pyridin-2-yl)cyclopropanecarboxamide], in data set [1], the “effect on cell viability in BV-2 cells (in words)” value (“effect … in BV-2 cells (in words)” for short) is recorded as “decreased cells’ viability”. Further, in data set [2], the viability at 24 h, 1 µM came out at 101%; the viability at 24 h, 10 µM was determined as 9%; the viability at 24 h, 50 µM was determined as 3%; the viability at 24 h, 100 µM was 3%. In data set [2], the half-maximal inhibitory concentration (IC50) at 24 h stood at 3 µM and the viability at 24 h, 0.1 µM amounted to 108%. Moreover, in data set [3], the viability at 24 h, 1 µM worked out at 105%; the viability at 24 h, 10 µM is 62%; the viability at 24 h, 50 µM was 36%; the viability at 24 h, 100 µM worked out at 31%. For the same compound, in data set [3], the IC50 at 24 h amounted to 9.7 ± 5.8 µM and the viability at 24 h, 0.1 µM is 101%. In addition, the “effect on cell viability in HT-22 cells (in words)” value (“effect … in HT-22 cells (in words)” below) in data set [4] is given as “decreased cells’ viability”. Further, on GSK-3β, the IC50 was found to be 10 nM.
As for `NC(=O)Nc1cc(-c2ccnc(NC(=O)C3CC3)c2)sc1C(N)=O` [Compound 49, 5-(2-(Cyclopropanecarboxamido)pyridin-4-yl)-3-ureidothiophene-2-carboxamide], in data set [1], the “effect … in BV-2 cells (in words)” value is recorded as “no significant decrease in cell viability” and the “effect on viability of BV-2 cells at concentrations up to 10 µM (in words)” value was “did not decrease the viability of the cells”. Besides, in data set [2], the viability at 24 h, 100 µM stood at 74% and the IC50 at 24 h is greater than 100 µM. Also, in data set [3], the viability at 24 h, 1 µM was found to be 102%; the viability at 24 h, 10 µM amounted to 101%; the viability at 24 h, 50 µM came out at 88%; the viability at 24 h, 100 µM was 76%. Moreover, in data set [3], the IC50 at 24 h was greater than 100 µM and the viability at 24 h, 0.1 µM stood at 95%. Moreover, in data set [4], the “effect … in HT-22 cells (in words)” value is “no significant decrease in cell viability” and the “effect on viability of HT-22 cells at concentrations up to 10 µM (in words)” value is reported as “did not decrease the viability of the cells”. The compound further registered an IC50 on GSK-3β of 20 nM.
For `O=C1NC2(CCOC2)Nc2cc(-c3ccnc(NC(=O)C4CC4)c3)sc21` (stereo not drawn) [Compound 62, N-(4-(4′-Oxo-3′,4,4′,5-tetrahydro-1′H,2H-spiro[furan-3,2′-thieno [3,2-d]pyrimidin]-6′-yl)pyridin-2-yl)cyclopropanecarboxamide], in data set [1], the “effect … in BV-2 cells (in words)” value is “decreased cells’ viability” and the “effect on viability of BV-2 cells at concentrations up to 10 µM (in words)” value was “did not decrease the viability of the cells”. In data set [2], the viability at 24 h, 1 µM turned out to be 106%; the viability at 24 h, 10 µM worked out at 105%; the viability at 24 h, 50 µM came out at 5%; the viability at 24 h, 100 µM turned out to be 2%. In data set [2], the IC50 at 24 h was 54.8 ± 1.9 µM and the viability at 24 h, 0.1 µM came to 105%. Also, in data set [3], the viability at 24 h, 1 µM amounted to 108%; the viability at 24 h, 10 µM amounted to 105%; the viability at 24 h, 50 µM was 35%; the viability at 24 h, 100 µM amounted to 29%. Also, in data set [3], the IC50 at 24 h was determined as 58.3 ± 10 µM and the viability at 24 h, 0.1 µM is 106%. In data set [4], the “effect … in HT-22 cells (in words)” value was “decreased cells’ viability” and the “effect on viability of HT-22 cells at concentrations up to 10 µM (in words)” value is on record as “did not decrease the viability of the cells”. This compound came in with a 50% inhibitory concentration (IC50) against GSK-3β of 8 nM.
In the case of `NC(=O)Nc1cc(-c2ccnc(NC(=O)C3CCC3)c2)sc1C(N)=O` [Compound 50, 5-(2-(Cyclobutanecarboxamido)pyridin-4-yl)-3-ureidothiophene-2-carboxamide], the “effect … in BV-2 cells (in words)” value in data set [1] was “no significant decrease in cell viability”. Moreover, in data set [2], the viability at 24 h, 1 µM turned out to be 107%; the viability at 24 h, 10 µM came to 114%; the viability at 24 h, 50 µM stood at 96%; the viability at 24 h, 100 µM was found to be 50%. In addition, in data set [2], the IC50 at 24 h is greater than 100 µM and the viability at 24 h, 0.1 µM amounted to 101%. For the same compound, the “effect … in HT-22 cells (in words)” value in data set [4] is “no significant decrease in cell viability”. For the same compound, the IC50 against GSK-3β is 34 nM.
Take `CC1(C)NC(=O)c2sc(-c3ccnc(NC(=O)C4CCC4)c3)cc2N1` [Compound 41, N-(4-(2,2-Dimethyl-4-oxo-1,2,3,4-tetrahydrothieno [3,2-d]pyrimidin-6-yl)pyridin-2-yl)-cyclobutanecarboxamide]: the “effect … in BV-2 cells (in words)” value in data set [1] is listed as “decreased cells’ viability”. In addition, the “effect … in HT-22 cells (in words)” value in data set [4] is “decreased cells’ viability”. Further, at GSK-3β, half-maximal inhibition (IC50) was put at 32 ± 1 nM.
